Data published in ChEMBL document CHEMBL4725403, “Improved design of peptides exhibiting angiogenic activities for clinical applications” (Bioorg Med Chem, 2020).
Active and inactive are the calls of the source. The calls are words filed in the database; no cut-off is given here. Where a SMILES comes first, the peptide text is derived from it. Bridges are numbered along the chain shown (N, C = ends). [ ]: non-standard residue; d: D form. AEEA = NCCOCCOCC(=O)O

Assays:
[1] = Stability of compound in HUVEC cell lysates assessed as parent compound remaining after 6 hrs by HPLC-MS; format: ADME, subcellular; conditions: human; for Stabilty: huvec, 6 h
HUVEC [2] = experiment: Induction of angiogenesis in HUVEC assessed as tube formation at 2 ug/ml after 2 hrs by inverted microscopy; format: functional; conditions: Homo sapiens, dose 2.0 µg/ml
HUVEC [3] = experiment: Induction of angiogenesis in HUVEC assessed as tube formation at 2 ug/ml after 18 hrs by inverted microscopy; format: functional; conditions: Homo sapiens, dose 2.0 µg/ml
[4] = Stability of compound in human serum assessed as parent compound remaining after 6 hrs by HPLC-MS; format: ADME, cell-free; conditions: for Stabilty: 6 h
HUVEC [5] = experiment: Induction of angiogenesis in HUVEC assessed as tube formation at 2 ug/ml upto 24 hrs by inverted microscopy; format: functional; conditions: Homo sapiens, dose 2.0 µg/ml

| Stabilty [1] | Stabilty [4] | remaining at 6 h ([4]; read-out: Stabilty) | remaining at 6 h ([1]; HUVEC cell lysates, read-out: Stabilty) | Compound | Activity (HUVEC [2]) | Activity (HUVEC [3]) | Activity (HUVEC [5]) |
| --- | --- | --- | --- | --- | --- | --- | --- |
| Stable | Stable |  |  | CC(C)C[C@@H]1NC(=O)CNC(=O)[C@H](Cc2ccccc2)NC(=O)[C@H](C(C)C)NC(=O)[C@H](C(C)C)NC(=O)[C@H](CO)NC(=O)COCCOCCNC(=O)[C@H](N)CSSC[C@H](C(N)=O)NC(=O)CNC(=O)[C@H](CCCNC(=N)N)NC1=O | Active | Active |  |
|  | Unstable |  | 50% | H-SVVFGLR-NH2 | Active | Active |  |

Second part, the compound before the results:

| Compound | Stabilty [1] | Stabilty [4] | remaining at 6 h ([4]; read-out: Stabilty) | remaining at 6 h ([1]; HUVEC cell lysates, read-out: Stabilty) | Activity (HUVEC [2]) | Activity (HUVEC [3]) | Activity (HUVEC [5]) |
| --- | --- | --- | --- | --- | --- | --- | --- |
| CC(C)C[C@@H]1NC(=O)CNC(=O)[C@H](Cc2ccccc2)NC(=O)[C@H](C(C)C)NC(=O)[C@H](C(C)C)NC(=O)[C@H](CO)NC(=O)COCCOCCNC(=O)[C@@H](N)CSSC[C@@H](C(N)=O)NC(=O)CNC(=O)[C@H](CCCNC(=N)N)NC1=O | Stable | Stable |  |  | Active | Active | Active |
| CC(C)C[C@H](NC(=O)CNC(=O)[C@H](Cc1ccccc1)NC(=O)[C@@H](NC(=O)[C@@H](NC(=O)[C@H](CO)NC(=O)COCCOCCN)C(C)C)C(C)C)C(=O)N[C@@H](CCCNC(=N)N)C(N)=O (H-[AEEA]SVVFGLR-NH2) | Stable |  |  |  |  |  |  |
| CC(C)C[C@@H]1NC(=O)CNC(=O)[C@H](Cc2ccccc2)NC(=O)[C@H](C(C)C)NC(=O)[C@H](C(C)C)NC(=O)[C@H](CO)NC(=O)COCCOCCNC(=O)CC[C@@H](C(N)=O)NC(=O)[C@H](CCCNC(=N)N)NC1=O ([AEEA]SVVFGLRE-NH2; lactam N-9) | Unstable |  | 80% |  | Active | Active |  |
